Experimental data: patent US20220146526A1, “METHOD FOR EVALUATING SAMPLE, ANALYSIS METHOD, METHOD FOR DETECTING DEGRADED SAMPLE, MARKER FOR DETECTING DEGRADED BLOOD PLASMA SAMPLE, AND MARKER FOR DETECTING DEGRADED SERUM SAMPLE” (SHIMADZU CORPORATION, priority 2019, published 2022)

Assays:
Type in all cases: physicochemical, human
[1] = LC/MS of blood plasma sample: time from blood collection to centrifugation (Table D); conditions: blood collection to centrifugation; for Rate of increase or decrease: detection intensity relative to 1 at 15 minutes; for Increase or decrease: detection intensity
Outline: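 Detection intensities are expressed relative to samples centrifuged 15 min after collection (=1), measured by electrospray LC/MS in MRM mode (Discovery HS F5-3, 40 °C, formic acid water/acetonitrile gradient at 0.25 mL/min). EDTA blood from a healthy donor was held at 4 °C, centrifuged at 4 °C, 3000 rpm, 15 min, and plasma frozen.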

[2] = LC/MS of serum sample: time from blood collection to centrifugation (Table J); conditions: for Rate of increase or decrease: detection intensity relative to 1 at 15 minutes; for Increase or decrease / Time when compound is affected: serum sample, LC/MS; for Increase or decrease: detection intensity vs 15 minutes from blood collection to centrifugation; for Time when compound is affected: time from blood collection to centrifugation, detection intensity changed by 30% or more vs 15 minutes
Outline: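 Detection intensities are expressed relative to 1 for samples centrifuged 15 min after blood collection; centrifugation was at room temperature, 3500 rpm, 5 min. Frozen serum was run by electrospray LC-MS in MRM mode, with 0.1% formic acid water/acetonitrile at 0.25 mL/min on a 40 °C F5 column.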

[3] = LC/MS of serum sample: number of times of freezing and thawing (Table M); parameters: key to Rate of increase or decrease: detection intensity relative to 1 at 2 freeze-thaw cycles; conditions: for Rate of increase or decrease: detection intensity relative to 1 at 2 times; for Number of times when compound is affected / Increase or decrease: serum sample, LC/MS; for Number of times when compound is affected: detection intensity changed by 30% or more vs 2 times of freezing and thawing; for Increase or decrease: detection intensity vs 2 times of freezing and thawing
Outline: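 Values are detection intensities relative to serum thawed twice, versus 4, 6 or 10 freeze-thaw cycles. Serum came from blood spun at room temperature, 3500 rpm for 5 minutes. Analysis: electrospray LC/MS in MRM mode, Discovery HS F5-3 column, 40° C, 0.1% formic acid in water and acetonitrile.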

[4] = LC/MS of blood plasma sample: number of times of freezing and thawing (Table F); conditions: for Increase or decrease: detection intensity; for Rate of increase or decrease (second value, decrease) / Rate of increase or decrease (first value, increase): different from individual to individual, relative to 1 at 2 times, freezing and thawing 6 times; for Rate of increase or decrease (second value, decrease): individuals with decrease; for Rate of increase or decrease (first value, increase): individuals with increase; for Rate of increase or decrease: detection intensity relative to 1 at 2 times
Outline: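 Values are detection intensities normalised to 1 for plasma thawed twice, compared against 4, 6 and 10 freeze-thaw cycles. Measured by electrospray LC/MS in MRM mode, formic acid water/acetonitrile mobile phase, column at 40° C. Plasma came from EDTA blood, cooled to 4° C and spun at 3000 rpm for 15 min.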

[5] = LC/MS of blood plasma sample: time from blood collection to cooling of blood (Table E); parameters: key to Rate of increase or decrease / Rate of increase or decrease (first value, increase): detection intensity relative to ≤1 min to cooling = 1; conditions: for Increase or decrease: detection intensity, blood collection to cooling 5 minutes or more vs 1 minute or less; for Rate of increase or decrease (second value, decrease) / Rate of increase or decrease (first value, increase): different from individual to individual, relative to 1 at 1 minute or less, collection to cooling 5 minutes; for Rate of increase or decrease (second value, decrease): individuals with decrease; for Rate of increase or decrease (first value, increase): individuals with increase; for Rate of increase or decrease: detection intensity relative to 1 at 1 minute or less, blood collection to cooling 5 minutes
Experimental: At room temperature, 5 mL of blood from a healthy subject was taken into a blood-collecting vessel containing EDTA, and the blood-collecting vessel was inverted for mixing, then cooled, and allowed to stand at 4° C. Here, in order to investigate how the detection intensity of molecules contained in the sample was affected in a case where the time to cooling was set to 5 minutes or more as compared to that in a case where the time to cooling was set to 1 minute or less, preparations were performed under both the former condition and the latter condition. After standing, the blood sample was subjected to centrifugation under a condition of 4° C., 3000 rpm, and 15 minutes. […] After centrifugation, the blood-collecting vessel was left to stand at room temperature for 30 minutes, and the blood plasma was isolated during this 30 minutes. The obtained blood plasma sample was frozen and stored. Here, in order to investigate how the detection intensity of molecules contained in the sample was affected in cases where freezing and thawing was performed 4 times, 6 times, and 10 times after freezing as compared to that in a case where freezing and thawing was performed 2 times after freezing, freezing and thawing was performed under the respective conditions of 2, 4, 6, and 10 times.
Frozen blood plasma samples and serum samples were subjected to GC/MS or LC/MS. In GC/MS, the blood plasma samples and serum samples were subjected to methoxymation and trimethylsilylation and then introduced to GC-MS.
Analysis column: Discovery HS F5-3 (inner diameter of 2.1 mm, length of 150 mm, film thickness of 3 μm) (Sigma-Aldrich)
Column temperature: 40° C.
(A) 0.1% formic acid (dissolved in water)
(B) 0.1% formic acid (dissolved in acetonitrile)
Flow velocity: 0.25 mL/min
Ionization method: electrospray
Temperature: • Desolvation Line (DL) temperature: 250° C. • Heat block temperature: 400° C. • Interface temperature: 300° C.
Gas flow rate: • Nebulizer gas flow rate: 3.0 L/min • Drying gas flow rate: 10.0 L/min • Heating gas flow rate: 10.0 L/min
Mode: multiple reaction monitoring (MRM)
The rate of increase or decrease in Table E is the value of detection intensity relative to 1 that is the detection intensity in a case where the time from blood collection to cooling is set to 1 minute or less.

[6] = LC/MS of serum sample: time from centrifugation to isolation (Table K); parameters: key to Rate of increase or decrease: detection intensity relative to the 30-minute value set as 1; conditions: for Rate of increase or decrease: detection intensity relative to 1 at 30 minutes; for Increase or decrease / Time when compound is affected: serum sample, LC/MS; for Increase or decrease: detection intensity vs 30 minutes from centrifugation to isolation; for Time when compound is affected: time from centrifugation to isolation, detection intensity changed by 30% or more vs 30 minutes
Outline: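 Serum left at room temperature 30 min, 1 h or 6 h between centrifugation (3500 rpm, 5 min, room temperature) and isolation, then frozen and analysed by LC/MS (Discovery HS F5-3 column, 40° C., 0.1% formic acid water/acetonitrile, electrospray, MRM). Values are detection intensity relative to the 30-min condition set to 1.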

[7] = after 4 hours from blood collection to centrifugation
[8] = 4 times of freezing and thawing
[9] = freezing and thawing 6 times vs 2 times
[10] = after 1 hour from centrifugation to isolation
[11] = after 6 hours from centrifugation to isolation
[12] = 10 times of freezing and thawing

Row | Structure (SMILES) | Rate of increase or decrease ([1]; after 4 hours) | Increase or decrease ([1]; after 4 hours vs 15 minutes) | Rate of increase or decrease [2, 7] | Increase or decrease [2] | Time when compound is affected [2] | Rate of increase or decrease [3, 8] | Number of times when compound is affected [3] [times] | Increase or decrease [3] | Increase or decrease [4, 9] | Rate of increase or decrease (second value, decrease) [4] | Rate of increase or decrease (first value, increase) [4] | Increase or decrease [5] | Rate of increase or decrease (second value, decrease) [5] | Rate of increase or decrease (first value, increase) [5] | Rate of increase or decrease [6, 10] | Increase or decrease [6] | Time when compound is affected [6] | Rate of increase or decrease [5] | Rate of increase or decrease [6, 11] | Rate of increase or decrease [3, 12] | other results
1 | OC[C@H]1O[C@@H](n2cnc3c(O)ncnc32)[C@H](O)[C@@H]1O [Inosine] | 2.26 | Increase | 0.17 | Decrease | After 4 hours | 1.44 | 4 | Increase | Different from individual | 0.53 | 1.67 | Different from individual | 0.64 | 18.25 | 0.61 | Decrease | After 1 hour hours |  |  |  | 
2 | N[C@@H](CC(=O)O)C(=O)O [Aspartic acid] |  |  | 2.10 | Increase | After 4 hours |  | 10 | Decrease |  |  |  | Increase |  |  |  | Increase | After 6 hours | 1.93 | 2.40 | 0.53 | Rate of increase or decrease ([1]; after 6 hours): 1.46; Increase or decrease ([1]; after 6 hours vs 15 minutes): Increase; Rate of increase or decrease ([4]; freezing and thawing 10 times): 1.76; Increase or decrease ([4]; freezing and thawing 10 times vs 2 times): Increase

Second part, led by results:

Row | Rate of increase or decrease ([1]; after 4 hours) | Increase or decrease ([1]; after 4 hours vs 15 minutes) | Rate of increase or decrease [2, 7] | Increase or decrease [2] | Time when compound is affected [2] | Rate of increase or decrease [3, 8] | Number of times when compound is affected [3] [times] | Increase or decrease [3] | Increase or decrease [4, 9] | Rate of increase or decrease (second value, decrease) [4] | Rate of increase or decrease (first value, increase) [4] | Increase or decrease [5] | Rate of increase or decrease (second value, decrease) [5] | Rate of increase or decrease (first value, increase) [5] | Rate of increase or decrease [6, 10] | Increase or decrease [6] | Time when compound is affected [6] | Rate of increase or decrease [5] | Rate of increase or decrease [6, 11] | Rate of increase or decrease [3, 12] | Structure (SMILES) | other results
3 | 1.33 | Increase |  | Increase | After 6 hours | 1.37 | 4 | Increase |  |  |  | Increase |  |  |  | Decrease | After 6 hours | 1.67 | 0.61 |  | N[C@@H](CS)C(=O)O [Cysteine] | Rate of increase or decrease ([2]; after 6 hours from blood collection to centrifugation): 1.39; Rate of increase or decrease ([4]; freezing and thawing 4 times): 1.99; Increase or decrease ([4]; freezing and thawing 4 times vs 2 times): Increase
4 | 2.95 | Increase |  |  |  |  | 10 | Decrease | Different from individual | 0.68 | 1.57 | Different from individual | 0.63 | 1.62 | 0.52 | Decrease | After 1 hour hours |  |  | 0.65 | NCCc1c[nH]c2ccc(O)cc12 [Serotonin] | 
5 | 1.95 | Increase | 0.62 | Decrease | After 4 hours | 1.52 | 4 | Increase | Different from individual | 0.30 | 1.54 | Different from individual | 0.46 | 2.56 | 0.70 | Decrease | After 1 hour hours |  |  |  | Nc1ccn([C@@H]2O[C@H](CO)[C@@H](O)[C@H]2O)c(=O)n1 [Cytidine] | 
